Experimental data: ChEMBL document CHEMBL1136826, “A new synthesis of cytoxazone and its diastereomers provides key initial SAR information” (Bioorg Med Chem Lett, 2003)
pIC50: −log10 of the molar value.

Legend:
[1] = Inhibitory activity against IL-2 on stimulated human peripheral blood mononuclear cells at 30 uM concentration; assay type: functional
[2] = Inhibitory activity against IL-4 on stimulated human peripheral blood mononuclear cells at 30 uM concentration; assay type: functional
[3] = Inhibitory activity against IL-5 on stimulated human peripheral blood mononuclear cells at 30 uM concentration; assay type: functional
[4] = Inhibitory activity against IL-10 on stimulated human peripheral blood mononuclear cells at 30 uM concentration; assay type: functional
[5] = species: Mus musculus; assay: Inhibitory activity against blockage secretion of IL-10 in pokeweed mitogen (PWN)-stimulated murine splenocytes; assay type: functional, organism-based

For COc1ccc([C@H]2NC(=O)O[C@H]2CO)cc1, which inhibition at 30 µM [1] is on record?
Its inhibition at 30 µM is 19%.

What about the inhibition at 30 µM [2] of the same molecule?
Its inhibition at 30 µM is 73%.

And the inhibition at 30 µM [3]?
Its inhibition at 30 µM is 66%.

What about the inhibition at 30 µM [4] of the same molecule?
Its inhibition at 30 µM is 94%.

What about the pIC50 [5] of the same molecule?
The pIC50 was 5.00.
